Results as given in the OligoGym collection.
“And” between values parts separate entries of the source, which are not always exact repeats. Equal entries are not always repeated. After the bases stand the sugars from the 5' end (letter, count) and the backbone: PS all phosphorothioate, else s phosphorothioate and o phosphodiester by linkage. Methylation of C is not given here. e = 2'-O-(2-methoxyethyl) (MOE); k = constrained ethyl (cEt); d = 2'-deoxy (DNA)

molecular target: IRF4; conditions: ASO, MM.1R, 0.0625 µM

Sequence | target mRNA inhibition [%]
CCGTGATCTGAGACTA (sugars k3 d10 k3, PS) | 0
ATAGAATTAGGTGCTT (sugars k3 d10 k3, PS) | -5

same assay, conditions: ASO, MM.1R, 0.074 µM

Sequence | target mRNA inhibition [%]
GCAGTGATGTCAGGTT (sugars kkdddddddddkdkdk, PS) | 15
ATAGAATTAGGTGCTT (sugars k3 d10 k3, PS) | -1

same assay, conditions: ASO, MM.1R, 0.222 µM

Sequence | target mRNA inhibition [%]
GCAGTGATGTCAGGTT (sugars kkdddddddddkdkdk, PS) | 32
ATAGAATTAGGTGCTT (sugars k3 d10 k3, PS) | 33

same assay, conditions: ASO, MM.1R, 0.25 µM

Sequence | target mRNA inhibition [%]
CCGTGATCTGAGACTA (sugars k3 d10 k3, PS) | 13
ATAGAATTAGGTGCTT (sugars k3 d10 k3, PS) | 6

same assay, conditions: ASO, MM.1R, 0.666 µM

Sequence | target mRNA inhibition [%]
GCAGTGATGTCAGGTT (sugars kkdddddddddkdkdk, PS) | 58
ATAGAATTAGGTGCTT (sugars k3 d10 k3, PS) | 11

same assay, conditions: ASO, MM.1R, 1 µM

Sequence | target mRNA inhibition
TGTAGTATGAGAAACG (sugars kkdddddddddkdkdk, PS) | -6%
CCGTGATCTGAGACTA (sugars k3 d10 k3, PS) | 45% and 30%
TTATGTTAGCCAATTC (sugars k2 d9 e3 k2, PS) | 14% and 9%
GCAGTGATGTCAGGTT (sugars kkdddddddddkdkdk, PS) | 53%
TAACTTCTCCTGTGCA (sugars k3 d10 k3, PS) | 15%
TGGCTGATAATTAATC (sugars k3 d10 k3, PS) | -5%
AGGCACATCAATGTTT (sugars kdddddddddkekeke, PS) | -9% and 3%
AGGACACTCACAGGCG (sugars k3 d10 k3, PS) | 8%
CTATAGTGTTCCAGGA (sugars kkdddddddddkekek, PS) | 43%
TCCTGTAACGCACCCG (sugars k3 d10 k3, PS) | -13%
ATAGAATTAGGTGCTT (sugars k3 d10 k3, PS) | 25%
AAAACAGCCGCCGGCA (sugars k3 d10 k3, PS) | -9%
TTTCTAATGGTGCTCC (sugars k3 d10 k3, PS) | 4%
TAGTATGAGAAACGGC (sugars k2 d9 e3 k2, PS) | 37%
GCATTTTATCATCCGA (sugars k2 d9 e3 k2, PS) | 38%
TCGAGATCATAGTGCA (sugars k3 d10 k3, PS) | 29%
CGTGATCTGAGACTAC (sugars k3 d10 k3, PS) | 25% and 36%
AGCATTTTATCATCCG (sugars kkdddddddddkdkdk, PS) | 11%
CCCATATACATTGAGG (sugars k3 d10 k3, PS) | 16%
ATGTGATAGCTGAGCT (sugars kkdddddddddekeke, PS) | 2%
TCAGTTACTCACGAGC (sugars k3 d10 k3, PS) | -3%
TGGCGAGTGGCGGGTA (sugars k3 d10 k3, PS) | -18%
GGTTGGCTGGTCTTTG (sugars kkdddddddddkdkdk, PS) | 64%
ACTCTTAGGCACATCA (sugars k3 d10 k3, PS) | 27%
TGACACAGGAGCCGCT (sugars k3 d10 k3, PS) | 15%
ACGTGTGCTTGCCAAG (sugars kdddddddddkekeke, PS) | 40% and 35%
TTTATGTTAGCCAATT (sugars kddddddddddkekek, PS) | 0% and -12%
CAGAGCCAACTTATAG (sugars k3 d10 k3, PS) | 30% and 43%
ATGCTGAACCCCACAG (sugars k3 d10 k3, PS) | 16%
GCCTTCAGCGGTTTCC (sugars k3 d10 k3, PS) | 4%

same assay, conditions: ASO, MM.1R, 2 µM

Sequence | target mRNA inhibition [%]
GCAGTGATGTCAGGTT (sugars kkdddddddddkdkdk, PS) | 79
ATAGAATTAGGTGCTT (sugars k3 d10 k3, PS) | 8

same assay, conditions: ASO, MM.1R, 4 µM

Sequence | target mRNA inhibition [%]
CCGTGATCTGAGACTA (sugars k3 d10 k3, PS) | 71
ATAGAATTAGGTGCTT (sugars k3 d10 k3, PS) | 56

same assay, conditions: ASO, SK-MEL-28, 4 µM

Sequence | target mRNA inhibition [%]
AAAGAGCTTGCAGGTC (sugars k3 d10 k3, PS) | 37
AGAGGAATGGCGGATA (sugars k3 d10 k3, PS) | 42
CCTGAATTTACAGCAT (sugars k3 d10 k3, PS) | 40
CAAACTCCTCAGGGAA (sugars k3 d10 k3, PS) | 23
CCCACGGACGGAGGCG (sugars k3 d10 k3, PS) | -9
GCCAAGTAATTTTAAG (sugars k3 d10 k3, PS) | 35
TACTAGGTGCTTGTTG (sugars k3 d10 k3, PS) | 49
CTACAAGGTCTGAGTT (sugars k3 d10 k3, PS) | 17
TTTACCTGGTATTGCT (sugars k3 d10 k3, PS) | 38
TAAAGATGCCAGAGGG (sugars k3 d10 k3, PS) | 39
ATCTACCTCAGTTTGT (sugars k3 d10 k3, PS) | 42
ATAGAATTAGGTGCTT (sugars k3 d10 k3, PS) | 64
TTTTTAGTTCATACCC (sugars k3 d10 k3, PS) | 41
ACACAGTCTGCTGCCC (sugars k3 d10 k3, PS) | 51
GAAGCATAGAACAGAT (sugars k3 d10 k3, PS) | 51
CAGTGGAGCTCCACAG (sugars k3 d10 k3, PS) | 41
GCAATTGAAATGGAGC (sugars k3 d10 k3, PS) | 24
GCAAAACCCCTCAAGC (sugars k3 d10 k3, PS) | 20
CCGTATCCCCGTATCA (sugars k3 d10 k3, PS) | 35
CCAAGATCGAGCGGTG (sugars k3 d10 k3, PS) | 37
TTTACACTGGATCTGA (sugars k3 d10 k3, PS) | 25
CCCTTAGGAACGAAGA (sugars k3 d10 k3, PS) | -6
GTATACTTAAGCAAGT (sugars k3 d10 k3, PS) | 42

Sequence | target mRNA inhibition [%]
ATGTATACCAACGACA (sugars k3 d10 k3, PS) | 63
GCGGACACGCCCGACC (sugars k3 d10 k3, PS) | 15
GACTAACAGGGAGACT (sugars k3 d10 k3, PS) | -9
GAGCAAACCCTGCACT (sugars k3 d10 k3, PS) | -16
GGTATACTTAAGCAAG (sugars k3 d10 k3, PS) | 68
CCGGAGCAGGCCCGGG (sugars k3 d10 k3, PS) | -13
TCAGAATTTAGTTAGT (sugars k3 d10 k3, PS) | 33
CCGAATAGGACCCCTA (sugars k3 d10 k3, PS) | 32
ATAATATAGTTGTCTG (sugars k3 d10 k3, PS) | 35
TGGCAGGGAGCGGCCG (sugars k3 d10 k3, PS) | 11
AGTGATAGGTATACTT (sugars k3 d10 k3, PS) | 39
GACAAGAACTGCTGTG (sugars k3 d10 k3, PS) | 15
TATGACCCAGTGCTCT (sugars k3 d10 k3, PS) | 40
GCCACAACTCTCGCCT (sugars k3 d10 k3, PS) | 25
TGTGACATAAAGGACC (sugars k3 d10 k3, PS) | 27
GGGCAACAGTTCAAGT (sugars k3 d10 k3, PS) | 36
GAGCTGTGATGAGCTT (sugars k4 d8 k4, PS) | 5
GTTTACACTGGATCTG (sugars k3 d10 k3, PS) | 61
GCACTGCATGAAAGTG (sugars k3 d10 k3, PS) | 40
GACCAATTTATGCCAT (sugars k3 d10 k3, PS) | 38
GAGAAGCATATTCCAA (sugars k3 d10 k3, PS) | 57
AGGACAATGGAGATAC (sugars k3 d10 k3, PS) | 72
CTGCAACTGGCTCACT (sugars k3 d10 k3, PS) | 10
